Measured values taken from patent publication US7250397B2, “Antiarrhythmic peptides” (Zealand Pharma A/S, priority 2000, dated 2007).
[ ]: non-standard residue; d: D form. The star is where a group is joined. Hyp = O=C(O)[C@@H]1C[C@@H](O)CN1; dHyp = O=C(O)[C@H]1C[C@H](O)CN1; T4C = not defined here; Acm = CC(=O)NC*; Sar = CNCC(=O)O

Tests used:
[1] = test system: calcium-induced arrythmias; assay: Calcium-induced arrhythmia model in mice; format: in vivo; conditions: maximal effect; i.v.; time until 2nd degree AV-block during CaCl2 infusion relative to vehicle treated mice
Description: The antiarrhythmic effects of compounds of this invention were tested in an in vivo model of calcium-induced arrythmias according to the model of Lynch et al.^[37]. […]. Commercial solutions of hypnorm and midazolam were diluted 1:1 in distilled water and one part diluted Hypnorm® is mixed with one part diluted midazolam.
The anaesthesia was induced by s.c. administration in a dose of 0.05-0.075 μl/10 gram mouse. An i.v cannula was inserted into the tail vein. The lead II ECG signal was recorded continuously by positioning of a stainless steel ECG electrodes on the right forelimb and on the left hind limb. The ground electrode was placed on the right hind limb. The signal was amplified (x 5.000-10.000) and filtered (0.1-150 Hz) via a Hugo Sachs Electronic model 689 ECG module. The analogue signal was digitised via a 12 bit data acquisition board (Data Translation model DT321) and sampled at 1000 Hz using the Notocord HEM 3.1 software for Windows NT. After a 10-min equilibration period, the test sample of drug was injected into the tail vein. Mice pre-treated with vehicle were tested as a measure of the control level in untreated animals. The injection volume was 100 μl in all experiments. Infusion of CaCl2 (30 mg/ml, 0.1 ml/min≈100 mg/kg/min (calciumchlorid-2-hydrat, Riedel-de Häen, Germany)) was started 3 min after i.v. administration of drug or vehicle. The time lag to onset of 2nd degree AV-block was determined as the time from the start of CaCl2 infusion until the first arrhythmic event occured. An event of 2nd degree AV-block was defined as intermittent failure of the AV conduction characterised by a P-wave without the concomitant QRS complex.
Responses were expressed relative to the time until 2nd degree AV-block occurred in vehicle treated mice.

[2] = test system: membranes from rabbit heart; conditions: read-out: value given for AAP10 by Dhein et al.; cited from earlier work
[3] = test system: guinea pig papillary muscle; conditions: 1 μM; normoxic conditions; cited from earlier work
[4] = test system: phospho-inositol turnover in neonatal rat cardiomyocytes; assay: Phosphoinositol turnover in rat primary cardiomyocytes; format: cell-based; conditions: for EC50: Rattus norvegicus, Cardiomyocyte
Description: Neonatal Wistar rats (1-2 days old) are used. Hank's calcium- and magnesium-free balanced salt solution, buffered with 10 mM HEPES is used for washing during cell separation procedures. The hearts are excised, the ventricles isolated and the tissue cut into small pieces. The myocardial cells are isolated by stepwise enzymatic degradation with collagenase 0.05%, as described by^[35]. After repeated rounds of centrifugation and washing, the precipitated cells are resuspended in culture medium M199 with Earle's salt, 10% NCS, penicillin (75 U/mL), and streptomycin (75 U/mL) and pre-plated in a Petri dish for 90 minutes. The non-adherent cells are collected in the culture medium and plated in multidishes at 2.5*10^5 cells/well. The cultures are kept in a water-saturated CO2-incubator at 37° C. The cardiomyocyte cultures are used for analyses after 6-7 days.
Cardiomyocyte cultures are incubated for 48 hours in culture medium containing […] myo-[2-^3H]inositol to label the inositol phospholipids. On the day of analysis the medium is replaced by a buffer solution containing lithium and incubated at 37° C., as described by Meier et al.^[36]. After at least five minutes this buffer is replaced by the same volume of buffer containing test compound and incubated for exactly 20 minutes. The reaction is stopped by rapid replacement of the buffer by ice cold 4% v/v perchloric acid (PCA) and incubation for at least 20 minutes at 0° C. The PCA-extract is neutralised and the [^3H]inositol phosphates are separated by anion-exchange chromatography using Amprep™ columns containing 100 mg SAX Quaternary amine. The [^3H]inositol mono-phosphates are eluted and radioactivity in the fraction measured by liquid scintillation counting.
Before adding test substances to the cultures, the cells are depleted of glucose and oxygen by incubating them in a N2-atmosphere in glucose-free lithium-buffer for 10 minutes at 37° C. Control cells are incubated likewise only at normal atmospheric conditions and in a buffer containing glucose.

[5] = test system: CHO cells; assay: In situ binding of [125I]AAP10 on intact CHO cells; conditions: overnight at 4° C.
Description: CHO cells are seeded in 24-multi well dishes in a density of 7,900 cells/cm^2 (˜15,000 cells/well) and grown for 3 Days In Vitro (DIV) in 1 ml/well of F-12K Nutrient Mixture supplemented with […] (FCS) and 1000 units penicillin/1000 μg streptomycin (pen/strep) in an atmosphere of 5% CO2 and 100% humidity at 37° C. The cell density has at that time increased to 295,000 cells/cm^2 (152 pgprot/cell˜85 μgprot/well).
On the day of analysis cells are removed from the incubator and each well is washed twice with, depending on the experiment, either 2 ml pre-warmed (37° C.) or ice-cold (0° C.) D-PBS to remove serum. It is important to keep the period to a minimum during which cells are left without physiological solutions to avoid that they dry out during washing procedures. The cold washed cells are used directly for binding assays while the warm washed cells are used for experiments with glucose and oxygen deprivation.
Cells are incubated for 10 min in an N2-atmosphere in glucose free D-PBS (pH 7.2) pre-equilibrated with N2 for at least 10 min at 37° C. Control cells are incubated likewise for 10 min at 37° C., only, at normal atmospheric conditions and in D-PBS containing glucose (6 mM). […]
0.25 ml of 0.5% Triton-X-100 (v/v) is added to each well and cells left for at least 1 h to solubilize. […] The vials are counted in a γ-counter.

In the case of “Ac-Tyr-Pro-4Hyp-Gly-Ala-Gly-OH (Ac-YP[Hyp]GAG-OH; SMILES CC(=O)N[C@@H](Cc1ccc(O)cc1)C(=O)N1CCC[C@H]1C(=O)N1C[C@H](O)C[C@H]1C(=O)NCC(=O)N[C@@H](C)C(=O)NCC(=O)O) [Compound 1]”, the In vivo activity [1] is reported as “+ (15-29% increase in time until arrhythmia)”.
In the case of “H-C(Acm)GAG[Hyp]PYC(Acm)-NH2 [Compound 16]”, the In vivo activity [1] is reported as “+ (15-29% increase in time until arrhythmia)”.
For “H-Hyp-Pro-Tyr-Asn-Gly-Ala-Gly-NH2 (H-[Hyp]PYNGAG-NH2; SMILES C[C@H](NC(=O)CNC(=O)[C@H](CC(N)=O)NC(=O)[C@H](Cc1ccc(O)cc1)NC(=O)[C@@H]1CCCN1C(=O)[C@@H]1C[C@@H](O)CN1)C(=O)NCC(N)=O) [Compound 28]”, the In vivo activity [1] was “(+) (≦15% increase in time until arrythmia)”.
In the case of “cyclo(-Gly-Ala-Gly-Hyp-Pro-Tyr-Gln-) (cyclo(GAG[Hyp]PYQ); SMILES C[C@@H]1NC(=O)CNC(=O)[C@H](CCC(N)=O)NC(=O)[C@H](Cc2ccc(O)cc2)NC(=O)[C@@H]2CCCN2C(=O)[C@@H]2C[C@@H](O)CN2C(=O)CNC1=O) [Compound 35]”, the In vivo activity [1] is reported as “++ (30-50% increase in time until arrhythmia)”.
For “cyclo(-Gly-Ala-Gly-Hyp-Pro-Tyr-Asn-) (cyclo(GAG[Hyp]PYN)) [Compound 36]”, the In vivo activity [1] was “+++ (>60% increase in time until arrhythmia)”.
With “H-Gly-Ala-Gly-T4C-Pro-Tyr-NH2 (H-GAG[T4C]PY-NH2; reading uncertain; also: printed as H-Gly-Ala-Gly-T4C-Pro-Tyr-NH2) [Compound 12]” the In vivo activity [1] was “++ (30-50% increase in time until arrhythmia)”.
For H-GAG[Hyp]PY-NH2 [Compound CE2], the IC50 [2] is listed as 0.2 nM, the decrease of stimulus-response-interval [3] is listed as “about 10%” and the “EC50 relative to the EC50 of Compound 2” value ([4]; during normoxia) is listed as 200 fold. The “EC50 relative to the EC50 of Compound 2” value ([4]; metabolic stress induced by anoxia and glucose deprivation) was 10 fold and the In vivo activity [1] was “+++ (>60% increase in time until arrhythmia)”.
Compound `NC[C@H](O)c1ccc(O)c(O)c1` [Noradrenaline] has an EC50 ([4]; atmosphere of N2 and depleted of glucose) of 303 nM and an EC50 ([4]; normal atmospheric and nutritional conditions) of 203 nM.
In the case of “H-Gly-Ala-Gly-PC-Pro-Tyr-NH2 (GAGPY; PC residue; C-terminal amide; Description of Artificial Sequence: Synthetic antiarrythmic peptide; PC between positions 3 and 4) [Compound 14]”, the In vivo activity [1] is reported as “+ (15-29% increase in time until arrhythmia)”.
With H-GAG[dHyp]AY-NH2 [Compound 9] the In vivo activity [1] was “+ (15-29% increase in time until arrhythmia)”.
With “H-Gly-Ala-Gly-Asn-Tyr-NH2 (H-GAGNY-NH2) [Compound 39]” the In vivo activity [1] was “+++ (>60% increase in time until arrhythmia)”.
With H-[Sar]A[Sar][Hyp]PY-NH2 [Compound 29] the In vivo activity [1] was “+ (15-29% increase in time until arrhythmia)”.
In the case of “ASAL(mono-iodo)-Pro-Hyp-Gly-Ala-Gly-NH2 [Compound 32]”, the IC50 [5] is reported as 0.5 nM and the In vivo activity [1] is reported as “+++ (>60% increase in time until arrhythmia)”.
In the case of “H-Gly-Ala-Sar-Hyp-Pro-Tyr-NH2 (H-GA[Sar][Hyp]PY-NH2; SMILES C[C@H](NC(=O)CN)C(=O)N(C)CC(=O)N1C[C@H](O)C[C@H]1C(=O)N1CCC[C@H]1C(=O)N[C@@H](Cc1ccc(O)cc1)C(N)=O) [Compound 30]”, the In vivo activity [1] is reported as “++ (30-50% increase in time until arrhythmia)”.
In the case of Ac-Gly-Asn-Tyr-NH2 [Compound 40], the In vivo activity [1] is reported as “++ (30-50% increase in time until arrhythmia)”.
In the case of “Cyclo(Tyr-Pro-4Hyp-Gly-Ala-Gly-Asn) [Compound 3]”, the In vivo activity [1] is reported as “+++ (>60% increase in time until arrhythmia)”.
With “Ac-D-Tyr(3,5-di-I)-D-Pro-D-Hyp-Gly-D-Ala-Gly-NH2 [Compound 24]” the IC50 [5] was 65 nM.
In the case of “H-GP[Hyp]GAG-OH [Compound CE1, reference compound]”, the In vivo activity [1] is reported as “++ (30-50% increase in time until arrhythmia)”.
For “3-(4-hydroxyphenyl)propionyl-Pro-Hyp-Gly-Ala-Gly-OH [Compound CE3, reference compound]”, the In vivo activity [1] was “++ (30-50% increase in time until arrhythmia)”.
In the case of H-Gly-Asn-Tyr-NH2 [Compound 41], the In vivo activity [1] is reported as “++ (30-50% increase in time until arrhythmia)”.
With H-GAG[dHyp][dP]Y-NH2 [Compound 10] the In vivo activity [1] was “+++ (>60% increase in time until arrhythmia)”.
In the case of H-GAG[dHyp]PY-NH2 [Compound 5], the In vivo activity [1] is reported as “++ (30-50% increase in time until arrhythmia)”.
